Where “and” joins values, the source holds several entries; their conditions need not be identical. Identical values can stand only once. Toxic doses and inconclusive results are not listed.

In the assay the test system is BDF1 mice, B16 melanoma ip, median survival T/C. The assay can be described thus: NCI In Vivo Anticancer Drug Screen. Data for tumor model B16 Melanoma (intraperitoneal) in B6D2F1 (BDF1) mice. Particulars: endpoint: median survival time, higher = longer survival. The procedure:
The antitumor activity of compounds was measured in mice bearing transplantable tumors. Survival or tumor size were measured and the results are expressed as the measurement made in the treated group (T) divided by the measurement made in the vehicle treated control group (C). The tumor model used in this assay is B16 Melanoma (intraperitoneal) in B6D2F1 (BDF1) mice

Setting [1] is: dose: 50.0 mg/kg/injection, schedule: Q01DX009 (ip), vehicle: Klucel (hydroxypropylcellulose) (HPC).
Setting [2] is: dose: 100.0 mg/kg/injection, schedule: Q01DX009 (ip), vehicle: Klucel (hydroxypropylcellulose) (HPC).
The mark [3] stands for this setting: dose: 200.0 mg/kg/injection, schedule: Q01DX009 (ip), vehicle: Klucel (hydroxypropylcellulose) (HPC).
Setting [4] is: dose: 100.0 mg/kg/injection, schedule: Q01DX009 (ip), vehicle: saline.
[5] abbreviates: dose: 200.0 mg/kg/injection, schedule: Q01DX009 (ip), vehicle: saline.
The mark [6] stands for this setting: dose: 25.0 mg/kg/injection, schedule: Q01DX009 (ip), vehicle: Klucel (hydroxypropylcellulose) (HPC).
Setting [7] is: dose: 6.25 mg/kg/injection, schedule: Q01DX009 (ip), vehicle: Klucel (hydroxypropylcellulose) (HPC).
[8] abbreviates: dose: 12.5 mg/kg/injection, schedule: Q01DX009 (ip), vehicle: Klucel (hydroxypropylcellulose) (HPC).
The mark [9] stands for this setting: dose: 25.0 mg/kg/injection, schedule: Q01DX009 (ip), vehicle: saline.

Regarding `CC(Cc1ccccc1)NN` (stereo not given), the T/C (dose: 0.97 mg/kg/injection, schedule: Q01DX009 (ip), vehicle: saline) is 110 % of control; the T/C (dose: 1.95 mg/kg/injection, schedule: Q01DX009 (ip), vehicle: saline) was 112 % of control; the T/C (dose: 3.9 mg/kg/injection, schedule: Q01DX009 (ip), vehicle: saline) is 102 % of control; the T/C (dose: 7.81 mg/kg/injection, schedule: Q01DX009 (ip), vehicle: saline) is 112 % of control.

Turning to `C=CCNC(=S)Nc1cccc(Cl)c1C`, the T/C is, setting by setting: (dose: 12.5 mg/kg/injection, schedule: Q04DX003 (ip), vehicle: Klucel (hydroxypropylcellulose) (HPC)) 93 % of control; (dose: 25.0 mg/kg/injection, schedule: Q04DX003 (ip), vehicle: Klucel (hydroxypropylcellulose) (HPC)) 100 % of control; (dose: 50.0 mg/kg/injection, schedule: Q04DX003 (ip), vehicle: Klucel (hydroxypropylcellulose) (HPC)) 100 % of control.

Consider `CC1(c2ccc(N(CCCl)CCCl)cc2)NC(=O)NC1=O` (stereo not given), for which the T/C reads like this: (dose: 2.5 mg/kg/injection, schedule: Q01DX009 (ip), vehicle: Klucel (hydroxypropylcellulose) (HPC)) 104 % of control; (dose: 5.0 mg/kg/injection, schedule: Q01DX009 (ip), vehicle: Klucel (hydroxypropylcellulose) (HPC)) 94 % of control and 111 % of control; (dose: 18.75 mg/kg/injection, schedule: Q01DX009 (ip), vehicle: Klucel (hydroxypropylcellulose) (HPC)) 119 % of control; (dose: 20.0 mg/kg/injection, schedule: Q01DX009 (ip), vehicle: Klucel (hydroxypropylcellulose) (HPC)) 120 % of control and 123 % of control; (dose: 37.5 mg/kg/injection, schedule: Q01DX009 (ip), vehicle: Klucel (hydroxypropylcellulose) (HPC)) 102 % of control; (dose: 40.0 mg/kg/injection, schedule: Q01DX009 (ip), vehicle: Klucel (hydroxypropylcellulose) (HPC)) 157 % of control and 161 % of control. For the same compound, for the setting “dose: 75.0 mg/kg/injection, schedule: Q01DX009 (ip), vehicle: Klucel (hydroxypropylcellulose) (HPC)”, the T/C is 90 % of control.

For `CCC(C#N)=C1CCCCC1`, the T/C reads like this: (dose: 25.0 mg/kg/injection, schedule: Q01DX009 (ip), vehicle: saline with Tween-80) 102 % of control; (dose: 50.0 mg/kg/injection, schedule: Q01DX009 (ip), vehicle: saline with Tween-80) 106 % of control; (dose: 100.0 mg/kg/injection, schedule: Q01DX009 (ip), vehicle: saline with Tween-80) 114 % of control.

Take `COc1cc2c(c(OC)c1OC)-c1c(cc3c(c1OC)OCO3)CC(C)C(C)(O)C2OC(=O)c1ccccc1` (stereo not given): the T/C was 106 % of control (dose: 11.25 mg/kg/injection, schedule: Q01DX009 (ip), vehicle: saline + Tween-80 + alcohol); 97 % of control (dose: 22.5 mg/kg/injection, schedule: Q01DX009 (ip), vehicle: saline + Tween-80 + alcohol); 97 % of control (dose: 45.0 mg/kg/injection, schedule: Q01DX009 (ip), vehicle: saline + Tween-80 + alcohol); 91 % of control (dose: 90.0 mg/kg/injection, schedule: Q01DX009 (ip), vehicle: saline + Tween-80 + alcohol).

As for `CCN(CC)CCCCCOC(=O)c1ccccc1`, the T/C was 112 % of control under setting [1], 93 % of control under setting [2] and 103 % of control under setting [3].

Take `COc1cc2ccc(C(C)N)cc2cc1OC` (stereo not given): the T/C runs as follows: under setting [4], 97 % of control; under setting [5], 95 % of control.

For `[Cl][Pt+2][Cl].[NH-]C1CCC1.[NH2-]`, the T/C reads like this: (dose: 1.5 mg/kg/injection, schedule: Q01DX009 (ip), vehicle: saline) 176 % of control; (dose: 3.0 mg/kg/injection, schedule: Q01DX009 (ip), vehicle: saline) 162 % of control.

Take `Cc1ccc(NC(=O)c2cccc(C(=O)Nc3ccc(C)c(Cl)c3)c2)cc1Cl`: the T/C under setting [2] is 97 % of control; the T/C under setting [3] is 105 % of control; the T/C (dose: 400.0 mg/kg/injection, schedule: Q01DX009 (ip), vehicle: Klucel (hydroxypropylcellulose) (HPC)) is 97 % of control.

As for `C=CCOCCN1CCN(CCCN2c3ccccc3Sc3ccc(C(F)(F)F)cc32)CC1`, the T/C (dose: 0.31 mg/kg/injection, schedule: Q01DX009 (ip), vehicle: saline) was 102 % of control; the T/C (dose: 0.62 mg/kg/injection, schedule: Q01DX009 (ip), vehicle: saline) is 95 % of control; the T/C (dose: 0.78 mg/kg/injection, schedule: Q01DX009 (ip), vehicle: saline) is 102 % of control; the T/C (dose: 1.56 mg/kg/injection, schedule: Q01DX009 (ip), vehicle: saline) was 114 % of control.

On to `Cc1cc(NS(=O)(=O)c2ccc(N=Nc3cc(N=Nc4ccc(S(=O)(=O)Nc5cc(C)nc(C)n5)cc4)c4c(NC(=O)C(Cl)Cl)cccc4c3OC(=O)C(Cl)Cl)cc2)nc(C)n1` (tested in a mixture with another compound), for which the T/C reads like this: (dose: 12.5 mg/kg/injection, schedule: Q01DX009 (ip), vehicle: suspension in saline) 98 % of control; (dose: 25.0 mg/kg/injection, schedule: Q01DX009 (ip), vehicle: suspension in saline) 95 % of control; (dose: 50.0 mg/kg/injection, schedule: Q01DX009 (ip), vehicle: suspension in saline) 97 % of control; (dose: 100.0 mg/kg/injection, schedule: Q01DX009 (ip), vehicle: suspension in saline) 95 % of control; (dose: 200.0 mg/kg/injection, schedule: Q01DX009 (ip), vehicle: suspension in saline) 93 % of control; (dose: 400.0 mg/kg/injection, schedule: Q01DX009 (ip), vehicle: suspension in saline) 87 % of control.

For `CCCC(OC(C)=O)C(Cl)(Cl)Cl` (stereo not given), the T/C is 90 % of control under setting [6] and 100 % of control under setting [1].

Turning to `Cc1ccc(C(=O)/C=C/c2ccccc2)cc1`, the T/C is 100 % of control (dose: 25.0 mg/kg/injection, schedule: Q01DX009 (ip), vehicle: other); 105 % of control (dose: 50.0 mg/kg/injection, schedule: Q01DX009 (ip), vehicle: other); 107 % of control (dose: 100.0 mg/kg/injection, schedule: Q01DX009 (ip), vehicle: other); 100 % of control (dose: 200.0 mg/kg/injection, schedule: Q01DX009 (ip), vehicle: other).

Take `CN(N)P(=S)(c1ccccc1)N(C)N`: the T/C under setting [7] is 106 % of control and the T/C under setting [8] was 103 % of control.

Take `CSc1ccc2c(c1)N(CCCN(C)C)c1ccccc1S2`: the T/C runs as follows: (dose: 3.12 mg/kg/injection, schedule: Q01DX009 (ip), vehicle: saline) 100 % of control; (dose: 6.25 mg/kg/injection, schedule: Q01DX009 (ip), vehicle: saline) 107 % of control and 112 % of control; (dose: 12.5 mg/kg/injection, schedule: Q01DX009 (ip), vehicle: saline) 97 % of control and 124 % of control; under setting [9], 100 % of control and 124 % of control.

In the case of `COc1ccc2c(NCCCCCCCCNc3c4ccccc4nc4cc(OC)ccc34)c3ccccc3nc2c1`, for the setting “dose: 3.75 mg/kg/injection, schedule: Q01DX009 (ip), vehicle: distilled water + alcohol”, the T/C was 95 % of control.

With `CC(C)NNC(=O)C(N)CCC(=O)O` (stereo not given), the T/C under setting [9] was 97 % of control; the T/C (dose: 50.0 mg/kg/injection, schedule: Q01DX009 (ip), vehicle: saline) is 104 % of control; the T/C under setting [4] was 95 % of control; the T/C under setting [5] is 100 % of control.

Regarding `COc1cccc2c1C(=O)c1c(O)c3c(c(O)c1C2=O)C[C@@](O)(/C(C)=N/NC(=O)c1cccc([N+](=O)[O-])c1)C[C@@H]3OC1CC(N)C(O)C(C)O1` (stereo not given in full), the T/C was 153 % of control (dose: 2.0 mg/kg/injection, schedule: Q01DX001 (ip), vehicle: water); 158 % of control and 164 % of control (dose: 4.0 mg/kg/injection, schedule: Q01DX001 (ip), vehicle: water); 168 % of control and 178 % of control (dose: 8.0 mg/kg/injection, schedule: Q01DX001 (ip), vehicle: water); 164 % of control and 184 % of control (dose: 16.0 mg/kg/injection, schedule: Q01DX001 (ip), vehicle: water); 95 % of control (dose: 32.0 mg/kg/injection, schedule: Q01DX001 (ip), vehicle: water).

Consider `C[N+](C)(C)c1cc2c(nn1)Nc1ccccc1S2`, for which the T/C is, setting by setting: (dose: 3.12 mg/kg/injection, schedule: Q01DX009 (ip), vehicle: Klucel (hydroxypropylcellulose) (HPC)) 101 % of control; under setting [7], 98 % of control; under setting [8], 101 % of control; under setting [6], 101 % of control; under setting [1], 102 % of control; under setting [2], 89 % of control.

With `COc1cc2c(c(OC)c1OC)-c1ccc(SC)c(=O)cc1[C@@H](NC1OC(CO)C(O)C(O)C1O)CC2` (stereo not given in full), the T/C under setting [4] is 120 % of control.

Values taken from PubChem BioAssay AID192 (DTP/NCI, 2004).
